Experimental data: US20120283216A1, “FUNGICIDAL 2-(BICYCLIC ARYLOXY)CARBOXAMIDES” (priority 2009, published 2012)

Tests used:
Assay type in all cases: in vivo
Septoria tritici = assay: Test B: wheat leaf blotch, preventive spray on wheat seedlings, visual disease rating; settings: preventive spray at 40 ppm, rated after 48 h + 19 days; for pest or weed control at 40 ppm: Zymoseptoria tritici, 504 h, read-out: Test B disease control rating (100 = 100% disease control, 0 = no disease control relative to the controls)
Excerpt: (§1) General protocol for preparing test suspensions for Tests A-C: the test compounds were first dissolved in acetone in an amount equal to 11% of the final volume and then suspended at the desired concentration (in ppm) in acetone and purified water (50/50 mix by volume) containing 250 ppm of the surfactant Trem® 014 (polyhydric alcohol esters). The resulting test suspensions were then used in Tests A-C. Spraying a 40 ppm test suspension to the point of run-off on the test plants was the equivalent of a rate of 800 g/ha. The test suspension was sprayed to the point of run-off on wheat seedlings. The following day the seedlings were inoculated with a spore suspension of Septoria tritici (the causal agent of wheat leaf blotch) and incubated in a saturated atmosphere at 20° C. for 48 h, and then moved to a growth chamber at 20° C. for 19 days, after which time disease ratings were visually made. Results for Tests A-C are given in Table A. In the Table, a rating of 100 indicates 100% disease control and a rating of 0 indicates no disease control (relative to the controls). A dash (-) indicates no test results. All results are from applications of 40 ppm.

Botrytis cinerea = assay: Test C: tomato botrytis, preventive spray on tomato seedlings, visual disease rating; settings: preventive spray at 40 ppm, rated after 48 h + 3 days; for pest or weed control at 40 ppm: Botrytis cinerea, 120 h, read-out: Test C disease control rating (100 = 100% disease control, 0 = no disease control relative to the controls)
Excerpt: General protocol for preparing test suspensions for Tests A-C: the test compounds were first dissolved in acetone in an amount equal to 11% of the final volume and then suspended at the desired concentration (in ppm) in acetone and purified water (50/50 mix by volume) containing 250 ppm of the surfactant Trem® 014 (polyhydric alcohol esters). The resulting test suspensions were then used in Tests A-C. Spraying a 40 ppm test suspension to the point of run-off on the test plants was the equivalent of a rate of 800 g/ha.
The test suspension was sprayed to the point of run-off on tomato seedlings. The following day the seedlings were inoculated with a spore suspension of Botrytis cinerea (the causal agent of tomato botrytis) and incubated in saturated atmosphere at 20° C. for 48 h, and then moved to a growth chamber at 27° C. for 3 additional days, after which time disease ratings were visually made.
Results for Tests A-C are given in Table A. In the Table, a rating of 100 indicates 100% disease control and a rating of 0 indicates no disease control (relative to the controls). A dash (-) indicates no test results. All results are from applications of 40 ppm.

[1] = test system: Blumeria graminis f. sp. tritici; assay: Test A: wheat powdery mildew, preventive spray on wheat seedlings, visual disease rating; settings: preventive spray at 40 ppm, rated 8 days after inoculation; for pest or weed control at 40 ppm: Blumeria graminis, 192 h, read-out: Test A disease control rating (100 = 100% disease control, 0 = no disease control relative to the controls)
Excerpt: as §1, with “spore dust” for “spore suspension”, “of Blumeria graminis f. sp. tritici,” for “of Septoria tritici”, “wheat powdery mildew)” for “wheat leaf blotch)”, “in” for “in a saturated atmosphere at 20° C. for 48 h, and then moved to”, “for 8” for “for 19”

Row | Compound | Test B disease control rating (100 = 100% disease control, 0 = no disease control relative to the controls) (Septoria tritici) [%] | Test C disease control rating (100 = 100% disease control, 0 = no disease control relative to the controls) (Botrytis cinerea) [%] | Test A disease control rating (100 = 100% disease control, 0 = no disease control relative to the controls) [1] [%] | pest or weed control at 40 ppm (Septoria tritici) [%] | pest or weed control at 40 ppm (Botrytis cinerea) [%] | pest or weed control at 40 ppm [1] [%]
1 | CCC(Oc1ccc2ccc(Br)cc2c1)C(=O)NC(C)(C)COC=O (stereo not drawn) [Compound 18] | 99 | 100 | 99 | – | – | –
2 | CCC(Oc1ccc2ccc(OC)cc2c1)C(=O)NC(C)(C)C#N (stereo not drawn) [Compound 87] | 100 | 100 | 0 | – | – | –
3 | CCC(Oc1ccc2ccc(Br)cc2c1)C(=O)NC(C)(C)CSC(C)=O (stereo not drawn) [Compound 28] | 99 | 99 | 91 | – | – | –
4 | CCC(Oc1ccc2ccc(Br)cc2c1)C(=O)NC(C)(C)CN (stereo not drawn) [Compound 14] | 99 | 99 | 90 | – | – | –
5 | CCC(Oc1ccc2ccc(OC)cc2c1)C(=O)N(C)C(C)(C)C (stereo not drawn) [Compound 166] | – | – | – | 46 | 99 | 0
6 | CCC(Oc1ccc2ccc(Br)cc2c1)C(=O)NC1(C)CC1 (stereo not drawn) [Compound 13] | – | – | – | 98 | 99 | 50
7 | CCCOc1ccc2ccc(OC(OC)C(=O)NC(C)(C)C)cc2c1 (stereo not drawn) [Compound 125] | 100 | 98 | 92 | – | – | –
8 | CCC(Oc1cnc2ccc(I)cc2c1)C(=O)NC(C)(C)COC (single isomer, unassigned) [Compound 62] | 0 | 7 | 0 | – | – | –
9 | C#CCOc1ccc2ccc(OC(CC)C(=O)NC(C)(C)COC)cc2c1 (stereo not drawn) [Compound 133] | 99 | 100 | 74 | – | – | –
10 | CCC(Oc1ccc2ccc(N)cc2c1)C(=O)NC(C)(C)C (stereo not drawn) [Compound 29] | – | – | – | 76 | 95 | 0
11 | COCC(C)(C)NC(=O)C(OC)Oc1cnc2ccc(I)cc2c1 (stereo not drawn) [Compound 65] | 99 | 100 | 81 | – | – | –
12 | C#CC(C)(C)NC(=O)C(CC)Oc1ccc2ccc(CCC)cc2c1 (stereo not drawn) [Compound 144] | 93 | 98 | 99 | – | – | –
13 | CCC(Oc1cc2cc(F)ccc2cn1)C(=O)NC(C)(C)C (stereo not drawn) [Compound 66] | 0 | 88 | 79 | – | – | –
14 | CCc1ccc2ccc(OC(CC)C(=O)NC(C)(C)COC)cc2c1 (stereo not drawn) [Compound 138, 2-[(7-ethyl-2-naphthalenyl)oxy]-N-(2-methoxy-1,1-dimethylethyl)-butanamide] | – | – | – | 83 | 100 | 99
15 | CCOC(Oc1ccc2ccc(OC)cc2c1)C(=O)NC(C)(C)C#N (stereo not drawn) [Compound 116] | 99 | 99 | 13 | – | – | –
16 | CCC(Oc1ccc2ccc(OC)cc2c1)C(=O)NC(C)(C)C (stereo not drawn) [Compound 3, N-(1,1-dimethylethyl)-2-[(7-methoxy-2-naphthalenyl)oxy]butan amide] | – | – | – | 99 | 99 | 100
17 | C#CC(C)(C)NC(=O)C(CC)Oc1ccc2ccc(OC(F)F)cc2c1 (stereo not drawn) [Compound 6] | 100 | 100 | 98 | – | – | –
18 | CCCOc1ccc2ccc(OC(CC)C(=O)NC(C)(C)C)cc2c1 (stereo not drawn) [Compound 128] | 100 | 99 | 98 | – | – | –
19 | C#CC(C)(C)NC(=O)C(CC)Oc1ccc2ccc(CC)cc2c1 (stereo not drawn) [Compound 141] | 80 | 100 | 97 | – | – | –
20 | CCC(Oc1ccc2ccc(Br)cc2c1)C(=O)NC(C)(C)COP(C)(C)=O (stereo not drawn) [Compound 10] | 99 | 98 | 21 | – | – | –
21 | CCC(Oc1cnc2ccc(I)cc2c1)C(=O)NC(C)(C)C (stereo not drawn) [Compound 51, N-(1,1-dimethylethyl)-2-[(6-iodo-3-quinolinyl)oxy]butanamide] | – | – | – | 100 | 99 | 93
22 | CCOc1ccc2ccc(OC(OCC)C(=O)NC(C)(C)C)cc2c1 (stereo not drawn) [Compound 121] | – | – | – | 100 | 99 | 29
23 | C#Cc1ccc2ccc(OC(CC)C(=O)NC(C)(C)COC)cc2c1 (stereo not drawn) [Compound 97, 2-[(7-ethynyl-2-naphthalenyl)oxy]-N-(2-methoxy-1,1-dimethylethyl)-butanamide] | – | – | – | 100 | 99 | 100
